Experimental data from ChEMBL document CHEMBL1201862, “PubChem BioAssay data set” (2004).
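Values below derive from 48-hour exposures of cells grown in 96-well plates, with endpoints linearly interpolated between the two concentrations bracketing the appropriate inhibition level. The concentration for 50% growth inhibition is given as GI50.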 Calls of active or inactive are those of the source. No stated cut-off is given here; in the data, active = GI50 up to about 1.1 µM and inactive = higher.

Columns and labels:
Test in all cases: NCI-60 cell line screen, 48 h
KM12 = system: KM12
OVCAR-5 = system: OVCAR-5
A549 = system: A549
NCI-H460 = system: NCI-H460
UACC-62 = system: UACC-62
SK-MEL-28 = system: SK-MEL-28
SK-MEL-5 = system: SK-MEL-5
COLO 205 = system: COLO 205
A498 = system: A498
IGROV-1 = system: IGROV-1
SK-MEL-2 = system: SK-MEL-2
HOP-62 = system: HOP-62
U-251 = system: U-251
ACHN = system: ACHN
MCF7 = system: MCF7
Malme-3M = system: Malme-3M
NCI-H226 = system: NCI-H226
OVCAR-4 = system: OVCAR-4
SNB-75 = system: SNB-75
NCI-H522 = system: NCI-H522

Measured: GI50

O=C(Cn1c(C(=O)/C=C/c2ccc(Cl)c(Cl)c2)nc2ccccc21)c1ccccc1
inactive: KM12 19.6 µM | OVCAR-5 17.6 µM | A549 21.7 µM | NCI-H460 16.2 µM | UACC-62 31 µM | SK-MEL-28 35.3 µM | SK-MEL-5 16.9 µM | COLO 205 17.8 µM | A498 26.1 µM | IGROV-1 22.6 µM | SK-MEL-2 19.8 µM | HOP-62 26 µM | U-251 26.8 µM | ACHN 28 µM | MCF7 26.9 µM | Malme-3M 35.2 µM | NCI-H226 31.7 µM | OVCAR-4 25.6 µM

CC1=C(C)C(=O)C2=C(OCCO2)C1=O
inactive: KM12 17.3 µM | OVCAR-5 19.7 µM | A549 21.5 µM | NCI-H460 20.6 µM | SK-MEL-28 16.1 µM | SK-MEL-5 16 µM | COLO 205 17.6 µM | A498 19.5 µM | IGROV-1 2.11 µM | HOP-62 17.7 µM | U-251 16.1 µM | ACHN 25.2 µM | MCF7 24.5 µM | Malme-3M 15.9 µM | NCI-H226 24.3 µM

CCOC(CI)O[C@@H]1C=C[C@H](OC(C)=O)C1 (stereo partly drawn)
inactive: KM12 30.1 µM | OVCAR-5 > 100 µM | A549 > 100 µM | NCI-H460 > 100 µM | UACC-62 > 100 µM | SK-MEL-28 > 100 µM | SNB-75 > 100 µM | COLO 205 > 100 µM | A498 > 100 µM | SK-MEL-2 > 100 µM | HOP-62 84.7 µM | U-251 > 100 µM | ACHN > 100 µM | MCF7 > 100 µM | Malme-3M > 100 µM | NCI-H226 > 100 µM | OVCAR-4 > 100 µM

COc1ccc(C(=O)c2sc(N(C)C)nc2-c2ccccc2)cc1
inactive: KM12 15.8 µM | OVCAR-5 36.7 µM | A549 36 µM | NCI-H460 20.2 µM | UACC-62 30.8 µM | SK-MEL-28 32.1 µM | SNB-75 35.2 µM | SK-MEL-5 34 µM | COLO 205 33.7 µM | A498 26.9 µM | IGROV-1 42.6 µM | SK-MEL-2 22.5 µM | HOP-62 20.6 µM | U-251 43 µM | ACHN 33.7 µM | MCF7 21.6 µM | Malme-3M 37.4 µM | NCI-H226 67.5 µM | OVCAR-4 23.4 µM

CCOC(=O)Cn1c(C)nc2nn(Cc3ccccc3)cc2c1=O
inactive: KM12 > 100 µM | OVCAR-5 > 100 µM | A549 > 100 µM | NCI-H460 > 100 µM | UACC-62 > 100 µM | SK-MEL-28 > 100 µM | SK-MEL-5 > 100 µM | A498 > 100 µM | IGROV-1 > 100 µM | SK-MEL-2 > 100 µM | HOP-62 > 100 µM | U-251 > 100 µM | ACHN > 100 µM | MCF7 > 100 µM | Malme-3M > 100 µM | NCI-H226 > 100 µM

CN(C)c1ccc(/C=C2\N=C(c3ccccc3)N(c3nc4c(Cl)cc(Cl)cc4s3)C2=O)cc1
inactive: KM12 34.2 µM | OVCAR-5 57.9 µM | A549 49.9 µM | NCI-H460 27.7 µM | UACC-62 33.1 µM | SK-MEL-28 54.6 µM | SK-MEL-5 41.8 µM | COLO 205 55.8 µM | A498 27.4 µM | IGROV-1 41 µM | SK-MEL-2 49.9 µM | HOP-62 > 100 µM | U-251 55.3 µM | ACHN 59 µM | MCF7 31.6 µM | OVCAR-4 39.2 µM

CSc1ncc2c(C#N)c3sc4ccccc4n3c(=O)c2n1
inactive: KM12 54.2 µM | OVCAR-5 > 100 µM | A549 78.3 µM | NCI-H460 22.4 µM | UACC-62 > 100 µM | SK-MEL-28 > 100 µM | SNB-75 43.5 µM | SK-MEL-5 64.6 µM | COLO 205 > 100 µM | A498 > 100 µM | IGROV-1 > 100 µM | SK-MEL-2 > 100 µM | HOP-62 30.4 µM | U-251 24 µM | ACHN > 100 µM | MCF7 16.8 µM | Malme-3M > 100 µM | NCI-H226 26.1 µM | OVCAR-4 45.8 µM

COc1cc2c(cc1C)NC(=O)/C2=C/c1c(Cl)n(-c2ccccc2)c2ccccc12
inactive: KM12 7.31 µM | OVCAR-5 29.5 µM | A549 7 µM | NCI-H460 9.59 µM | NCI-H522 11.4 µM | UACC-62 19.3 µM | SK-MEL-28 21.8 µM | SNB-75 65 µM | SK-MEL-5 10.5 µM | COLO 205 5.86 µM | A498 32.8 µM | IGROV-1 34.4 µM | SK-MEL-2 11.4 µM | HOP-62 19.4 µM | U-251 16.1 µM | ACHN 12.7 µM | MCF7 10.2 µM | Malme-3M 18.4 µM

COC(=O)C(Cc1ccccc1)NC(=O)CCCNC(=O)OCc1ccccc1 (stereo not drawn)
inactive: KM12 > 100 µM | OVCAR-5 > 100 µM | A549 > 100 µM | NCI-H460 > 100 µM | NCI-H522 > 100 µM | UACC-62 49.9 µM | SK-MEL-28 48.2 µM | SNB-75 > 100 µM | SK-MEL-5 22.4 µM | COLO 205 77.4 µM | IGROV-1 > 100 µM | HOP-62 > 100 µM | U-251 > 100 µM | ACHN 33 µM | MCF7 > 100 µM | Malme-3M 7.33 µM | NCI-H226 > 100 µM | OVCAR-4 > 100 µM

O=C(Nc1ccccc1Cl)c1cc(S(=O)(=O)Nc2n[nH]c(=O)n2-c2ccccc2)c(S)cc1Cl
inactive: KM12 > 100 µM | OVCAR-5 > 100 µM | NCI-H460 > 100 µM | UACC-62 > 100 µM | SK-MEL-28 > 100 µM | SK-MEL-5 > 100 µM | COLO 205 > 100 µM | A498 > 100 µM | IGROV-1 > 100 µM | SK-MEL-2 > 100 µM | HOP-62 > 100 µM | U-251 > 100 µM | MCF7 > 100 µM | Malme-3M > 100 µM | NCI-H226 > 100 µM | OVCAR-4 > 100 µM

CN(C)CCNc1ncnc2[nH]c(-c3ccc4ccccc4c3)nc12
inactive: KM12 > 100 µM | OVCAR-5 > 100 µM | A549 > 100 µM | NCI-H460 > 100 µM | NCI-H522 > 100 µM | UACC-62 > 100 µM | SK-MEL-28 > 100 µM | SK-MEL-5 > 100 µM | COLO 205 > 100 µM | IGROV-1 > 100 µM | SK-MEL-2 > 100 µM | HOP-62 > 100 µM | U-251 > 100 µM | ACHN > 100 µM | MCF7 > 100 µM | Malme-3M > 100 µM | NCI-H226 > 100 µM | OVCAR-4 > 100 µM

O=C(CNc1c(Cl)cccc1Cl)NC1C=Cc2ccc(S(=O)(=O)Nc3c(Cl)cccc3Cl)cc2C1=O (stereo not drawn)
inactive: KM12 35.9 µM | OVCAR-5 47.1 µM | A549 > 100 µM | NCI-H460 > 100 µM | NCI-H522 30.5 µM | UACC-62 79.6 µM | SK-MEL-28 > 100 µM | SNB-75 16.7 µM | COLO 205 > 100 µM | IGROV-1 2.4 µM | SK-MEL-2 56.8 µM | HOP-62 41.4 µM | U-251 > 100 µM | ACHN > 100 µM | MCF7 > 100 µM | Malme-3M > 100 µM | NCI-H226 17.5 µM | OVCAR-4 > 100 µM
